According to patent US12214012B2, “Combined preparations for the treatment of cancer” (IMMUTEP S.A.S., priority 2013, dated 2025):
Structures can show the parent of a compound that is named as a salt.

B1: IMP321: recombinant soluble human LAG-3Ig fusion protein, 200-kDa dimer: extracellular domain of hLAG-3 fused to human IgG1 Fc (protein)
chain: LQPGAEVPVVWAQEGAPAQLPCSPTIPLQDLSLLRRAGVTWQHQPDSGPPAAAPGHPLAPGPHPAAPSSWGPRPRRYTVLSVGPGGLRSGRLPLQPRVQLDERGRQRGDFSLWLRPARRADAGEYRAAVHLRDRALSCRLRLRLGQASMTASPPGSLRASDWVILNCSFSRPDRPASVHWFRNRGQGRVPVRESPHHHLAESFLFLPQVSPMDSGPWGCILTYRDGFNVSIMYNLTVLGLEPPTPLTVYAGAGSRVGLPCRLPAGVGTRSFLTAKWTPPGGGPDLLVTGDNGDFTLRLEDVSQAQAGTYTCHIHLQEQQLNATVTLAIITVTPKSFGSPGSLGKLLCEVTPVSGQERFVWSSLDTPSQRSFSGPWLEAQEAQLLSQPWQCQLYQGERLLGAAVYFTELSSPG
modifications: left off: small tags and cut ends; a dimerising Fc or GST
notes: recombinant soluble human LAG-3Ig fusion protein, 200-kDa dimer: extracellular domain of hLAG-3 fused to human IgG1 Fc

Assays:
lymphoma cell line EL4 [1] = experiment: Murine syngeneic skin tumour model, EL4 (Example 2); assay type: in vivo; details: EL4 s.c. in C57Bl/6 mice; IMP321 50 μg s.c. D7-D24; Carboplatin 16 mg/kg i.p. D6, D10, D13, D17; FIG. 2
Description: (§1) A murine syngeneic skin tumour model was established using the lymphoma cell line EL4.
The minimum tumorigenic dose (MTD) of tumour cells (5×10^5 cells) was implanted by s.c. injection in the right flank of C57Bl/6 mice (5 weeks old) at Day 0. The mice were injected with phosphate buffered saline (PBS) (Group 1 mice), IMP321 (Group 2 mice), IMP321 and Carboplatin (Group 3 mice), or Carboplatin alone (Group 4 mice) according to the following schedule: • Group 1 (8 mice): negative control: PBS s.c. injection at D7, D11, D14, D19, D21 and D24; • Group 2 (8 mice): IMP321 s.c. injection (50 μg, 3.96 mg/ml) at D7, D11, D14, D19, D21 and D24; • Group 3 (8 mice): IMP321 s.c. injection (50 μg, 3.96 mg/m) at D7, D11, D14, D19, D21 and D24, plus Carboplatin i.p. injection (288 μg, 16 mg/kg) at D6, D10, D13 and D17; • Group 4 (8 mice): Carboplatin i.p. injection (288 μg, 16 mg/kg) at D6, D10, D13 and D17.
Tumour growth was monitored twice a week by measuring two perpendicular tumor diameters using calipers. Tumour size means the cross-sectional area in mm^2.

lymphoma cell line EL4 [2] = experiment: Murine syngeneic skin tumour model, EL4, carboplatin and oxaliplatin (Example 3); assay type: in vivo; details: EL4 s.c. in C57Bl/6 mice; IMP321 50 μg s.c. D7-D25; Carboplatin 16 mg/kg i.p. D6, D10, D13, D17; Oxaliplatin 3 mg/kg i.p. D6, D10; FIG. 3A/3B
Description: as §1
The minimum tumorigenic dose (MTD) of tumour cells (5×10^5 cells) was implanted by s.c. injection in the right flank of C57Bl/6 mice (5 weeks old) at Day 0. The mice were injected with phosphate buffered saline (PBS) (Group 1 mice), IMP321 (Group 2 mice), IMP321 and Carboplatin (Group 3 mice), Carboplatin alone (Group 4 mice), IMP321 and Oxaliplatin (Group 5 mice), or Oxaliplatin alone (Group 6 mice) according to the following schedule: • Group 1 (10 mice): negative control: PBS s.c. injection at D7, D11, D14, D18, D21 and D25; • Group 2 (10 mice): IMP321 s.c. injection (50 μg, 1.9 mg/m) at D7, D11, D14, D18, D21 and D25; • Group 3 (9 mice): IMP321 s.c. injection (50 μg, 1.9 mg/ml) at D7, D11, D14, D18, D21 and D25, plus Carboplatin i.p. injection (288 μg, 16 mg/kg) at D6, D10, D13 and D17; • Group 4 (10 mice): Carboplatin i.p. injection (288 μg, 16 mg/kg) at D6, D10, D13 and D17; • Group 5 (10 mice): IMP321 s.c. injection (50 μg, 1.9 mg/m) at D7, D11, D14, D18, D21 and D25, plus Oxaliplatin i.p. injection (54 μg, 3 mg/kg) at D6 and D10; • Group 6 (10 mice): Oxaliplatin i.p. injection (54 μg, 3 mg/kg) at D6 and D10.
Tumour growth was monitored twice a week by measuring two perpendicular tumor diameters using calipers. […] Tumour size means the cross-sectional area in mm^2.

[3] = tested on: Mouse colon 38 (C38) tumor fragments; experiment: C38 colon adenocarcinoma tumor model (Example 4); details: C38 fragments s.c. in C57BL/6 mice; oxaliplatin 5 mg/kg IV Q7Dx4; IMP321 20 μg SC Q7Dx4, day after oxaliplatin; FIG. 4A
Description: The effect of combined treatment with the LAG-3 derivative IMP321 (also referred to as hLAG-3Ig) and oxaliplatin in the C38 colon adenocarcinoma tumor model was evaluated. In this model, tumor fragments are surgically implanted subcutaneously.
Mouse colon 38 (C38) tumor fragments were obtained frozen from the Division of Cancer Treatment, Tumor Repository, NCI (Frederick, MD, USA). The C38 fragments were stored frozen in DMSO/SVF/RPMI 1640 medium (10/10/80) in liquid nitrogen until use. The fragments were thawed at 37° C. for 5 min, rinsed twice in RPMI 1640 medium before subcutaneous (SC) implantation in mice. The C38 tumors were serially transplanted in C57Bl/6 mice.
Small C38 tumor fragments (20-30 mg) were subcutaneously implanted in the right flank of 12 C57BL/6 mice. When tumor sizes reached 500-1000 mm^3, tumors were surgically excised and small C38 tumor fragments (20-30 mg) were subcutaneously implanted in the right flank of recipient C57BL/6 mice.
Treatment started when the tumors reached a mean volume of 200-300 mm^3. […]

[4] = tested on: colorectal adenocarcinoma cell line CT26; experiment: Murine syngeneic skin tumour model, CT26 (Example 1); assay type: in vivo; details: CT26 s.c. in BALB/c mice; IMP321 50 μg s.c. D11-D28; Topotecan 2.5 mg/kg i.p. D10, D13, D17; FIG. 1
Description: A murine syngeneic skin tumour model was established using the colorectal adenocarcinoma cell line CT26.
One quarter of the minimum tumorigenic dose (MTD) of tumour cells (0.5×10^5 cells) was implanted by subcutaneous (s.c.) injection in the right flank of four groups of BALB/c mice (5 weeks old) at Day 0. The mice were injected with phosphate buffered saline (PBS) (Group 1 mice), the LAG-3 derivative IMP321 (Group 2 mice), IMP321 and Topotecan (Group 3 mice), or Topotecan alone (Group 4 mice) according to the following schedule: • Group 1 (8 mice): negative control: PBS s.c. injection at D11, D14, D18, D21, D25 and D28; • Group 2 (7 mice): IMP321 s.c. injection (50 μg, 1.9 mg/ml) at D11, D14, D18, D21, D25 and D28; • Group 3 (8 mice): IMP321 s.c. injection (50 μg, 1.9 mg/ml) at D11, D14, D18, D21, D25 and D28, plus Topotecan i.p. injection (45 μg, 2.5 mg/kg) at D10, D13 and D17; • Group 4 (8 mice): Topotecan i.p. injection (45 μg, 2.5 mg/kg) at D10, D13 and D17.
Tumour growth was monitored twice a week by measuring two perpendicular tumour diameters using calipers. Tumour size means the cross-sectional area in mm^2.

| Molecule | effect on tumour growth (tumour size, cross-sectional area) (lymphoma cell line EL4 [1]) | effect on tumour growth (tumour size, cross-sectional area) (lymphoma cell line EL4 [2]) | effect on delaying tumor growth [3] | effect on tumour growth (tumour size, cross-sectional area) [4] |
| --- | --- | --- | --- | --- |
| [NH2][Pt]1([NH2])[O]C(=O)C2(CCC2)C(=O)[O]1 [carboplatin, cis-diammine(cyclobutane-1,1-dicarboxylate-O,O′)platinum(I)] | very little effect, if any | some effect | – | – |
| O=C1[O][Pt]2([NH][C@@H]3CCCC[C@H]3[NH]2)[O]C1=O [Oxaliplatin, [(1R,2R)-cyclohexane-1,2-diamine](ethanedioato-O,O′)platinum(II)] | – | had an effect | a slight effect | – |
| CC[C@@]1(O)C(=O)OCc2c1cc1n(c2=O)Cc2cc3c(CN(C)C)c(O)ccc3nc2-1 [topotecan, (S)-10-[(dimethylamino)methy]-4-ethyl-4,9-dihydroxy-1H-pyrano[3′,4′:6,7]indolizino[1,2-b] quinoline-3,14(4H,12H)-dione monohydrochloride] | – | – | – | some effect on reducing tumor growth |
| B1 | no effect on tumour growth | little, if any effect | no effect on delaying tumor growth | no effect on tumour growth |
